Data on 35 compounds can be found in patent US20230114241A1, “METHODS OF TREATING EPILEPSY USING THE SAME” (Trevena, Inc., priority 2019, published 2023).

The target in this assay is human sphingosine-1-phosphate receptor 1 (S1P1) (Homo sapiens, UniProt P21453). Description: Inhibition of cAMP production (HTRF cAMP HiRange), S1P1 CHO-K1 cells. Format: cell-based. The settings on record: inhibition of cAMP production; potency; read-out: hS1P1 CAMP pEC50 (converted). The method, then: Stable clonal Chinese hamster ovary K1 (CHO-K1) cells co-expressing EA-β-arrestin2 and the human sphingosine-1-phosphate receptor 1 (NM_001400, S1P1) with a C-terminal Prolink™ tag were purchased from DiscoverX corporation (Cat #: 93-0207C2).
Sequence of human sphingosine-1-phosphate receptor 1 (S1P1) (P21453 whole entry): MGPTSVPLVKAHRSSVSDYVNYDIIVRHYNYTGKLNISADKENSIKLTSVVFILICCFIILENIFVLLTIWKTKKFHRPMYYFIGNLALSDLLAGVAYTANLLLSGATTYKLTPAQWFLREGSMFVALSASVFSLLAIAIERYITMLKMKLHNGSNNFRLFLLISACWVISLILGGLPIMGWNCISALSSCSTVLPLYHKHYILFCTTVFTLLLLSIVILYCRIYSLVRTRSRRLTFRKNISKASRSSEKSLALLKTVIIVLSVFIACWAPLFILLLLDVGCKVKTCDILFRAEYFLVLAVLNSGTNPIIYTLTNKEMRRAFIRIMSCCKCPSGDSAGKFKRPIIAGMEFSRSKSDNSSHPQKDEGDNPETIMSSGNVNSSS
Cell lines were cultured in AssayComplete™ Media 6 (DiscoverX Corporation, Cat #: 920018GF2) at 37° C. and 5% CO2 in a humidified CO2 and temperature-controlled incubator. To begin assay plating, cells were washed with Dulbecco's phosphate buffered saline (CellGro, Cat #: 21-031-CV) and lifted from the culturing flask by incubation (37° C., 5 min) with CellStripper (Cellgro, Cat #: 25-056-CI). […] Plated cells were incubated overnight at 37° C. and 5% CO2 in a humidified CO2 and temperature-controlled incubator.
Agonist-promoted G-protein responses were determined by measuring changes in intracellular cAMP using the HTRF® cAMP HiRange kit (CisBio, Cat #: 62AM6PEJ) based on time-resolved fluorescence resonance energy transfer (TR-FRET) technology. […] Following a 30-minute incubation at 37° C. and 5% CO2 in a humidified CO2 and temperature-controlled incubator, the components of the cAMP HiRange kit were added as per the manufacturer's instructions. After an hour incubation at room temperature, plates were analyzed by a BMG PheraStar microplate reader.
These values are normalized to fingolimod, a known agonist of the sphingosine-1-phosphate 1 receptor.
For orientation: cAMP levels reflect the balance of adenylyl cyclase and phosphodiesterase activity.
As to `FC(F)(F)c1cc(-c2noc(-c3ccc4c(c3)nnn4C3CCCC3)n2)ccc1OCc1cccnc1` [Compound 4, 1-cyclopentyl-5-{3-[4-(pyridin-3-ylmethoxy)-3-(trifluoromethyl)phenyl]-1,2,4-oxadiazol-5-yl}-1H-1,2,3-benzotriazole], the EC50 is greater than 316 nM. For `Cc1cnc(-c2noc(-c3ccc4c(c3)nnn4C3CCOCC3)n2)cn1` [Compound 6, 5-[3-(5-methylpyrazin-2-yl)-1,2,4-oxadiazol-5-yl]-1-(oxan-4-yl)-1H-1,2,3-benzotriazole], the EC50 was greater than 316 nM. Under `CC(C)Oc1ccc(-c2nc(-c3ccc4c(c3)nnn4C3CCCC3)no2)cc1C(F)(F)F` [Compound 14, 3-(1-cyclopentyl-1H-benzo[d][1,2,3]triazol-5-yl)-5-(4-isopropoxy-3-(trifluoromethyl)phenyl)-1,2,4-oxadiazole] stands less than 316 nM. For the compound `CCC1(CC)CC(=O)c2cc(-c3nc(-c4ccncc4)no3)ccc2O1` [Compound 27, 2,2-diethyl-6-[3-(pyridin-4-yl)-1,2,4-oxadiazol-5-yl]-3,4-dihydro-2H-1-benzopyran-4-one], the EC50 is greater than 316 nM. The result for `CCC1(CC)CC(=O)c2cc(-c3nnc(-c4cccnc4)o3)ccc2O1` [Compound 28, 2,2-diethyl-6-(5-(pyridin-3-yl)-1,3,4-oxadiazol-2-yl)chroman-4-one] reads greater than 316 nM; that for `O=C1CC2(CCC(F)(F)CC2)Oc2ccc(-c3nc(-c4cccnc4)no3)cc21` [Compound 36, 4′,4′-difluoro-6-[3-(pyridin-3-yl)-1,2,4-oxadiazol-5-yl]-3,4-dihydrospiro[1-benzo-pyran-2,1′-cyclohexane]-4-one], greater than 316 nM.

With `CCC1(CC)CC(=O)c2cc(-c3nc(-c4ccnc(OC)c4)no3)ccc2O1` [Compound 38, 2,2-diethyl-6-(3-(2-methoxypyridin-4-yl)-1,2,4-oxadiazol-5-yl)chroman-4-one], the EC50 was greater than 316 nM. `O=C1CC2(CCCCC2)Oc2ccc(-c3nc(-c4cccnc4)no3)cc21` [Compound 41, 6-[3-(pyridin-3-yl)-1,2,4-oxadiazol-5-yl]-3,4-dihydrospiro[1-benzopyran-2,1′-cyclohexane]-4-one]: the EC50 was greater than 316 nM. Turning to `Cc1oc(-c2ccc3c(c2)nnn3C(C)C)nc1-c1ccc(Cl)cc1` [Compound 50, 5-[4-(4-chlorophenyl)-5-methyl-1,3-oxazol-2-yl]-1-(propan-2-yl)-1H-1,2,3-benzotriazole], the EC50 is greater than 316 nM.

For the compound `CC(C)n1nnc2cc(-c3nc(-c4ccc(OCc5ccccc5)cc4)no3)ccc21` [Compound 53, 5-{3-[4-(benzyloxy)phenyl]-1,2,4-oxadiazol-5-yl}-1-(propan-2-yl)-1H-1,2,3-benzotriazole], the EC50 was greater than 316 nM. Turning to `CC1(C)CCC2(CC1)CC(=O)c1cc(-c3nc(-c4cccnc4)no3)ccc1O2` [Compound 58, 4′,4′-dimethyl-6-[3-(pyridin-3-yl)-1,2,4-oxadiazol-5-yl]-3,4-dihydrospiro[1-benzopyran-2,1′-cyclohexane]-4-one], the EC50 is greater than 316 nM. As to `C=CCNc1ccc(-c2nc(-c3ccc4c(c3)CCC(=O)N4)no2)cc1C#N` [Compound 61, 2-(allylamino)-5-(3-(2-oxo-1,2,3,4-tetrahydroquinolin-6-yl)-1,2,4-oxadiazol-5-yl)benzonitrile], the EC50 is less than 316 nM.

As to `CCC1(CC)CC(=O)c2cc(-c3nc(-c4ccc(OC)cc4)no3)ccc2O1` [Compound 65, 2,2-diethyl-6-(3-(4-methoxyphenyl)-1,2,4-oxadiazol-5-yl)chroman-4-one], the EC50 is greater than 316 nM. Consider `CCC1(CC)CC(=O)c2cc(-c3nc(-c4ccccc4C)no3)ccc2O1` [Compound 66, 2,2-diethyl-6-(3-(o-tolyl)-1,2,4-oxadiazol-5-yl)chroman-4-one], for which the EC50 was less than 316 nM.

On to `CCC1(CC)CC(=O)c2cc(-c3nnc(-c4ccc5c(c4)nnn5C(C)C)s3)ccc2O1` [Compound 67, 2,2-diethyl-6-(5-(1-isopropyl-1H-benzo[d][1,2,3]triazol-5-yl)-1,3,4-thiadiazol-2-yl)chroman-4-one], for which the EC50 is greater than 316 nM. As to `CCC1(CC)CC(=O)c2cc(-c3nc(-c4ccc(Cl)cc4)no3)ccc2O1` [Compound 68, 6-[3-(4-chlorophenyl)-1,2,4-oxadiazol-5-yl]-2,2-diethyl-chroman-4-one], the EC50 was greater than 316 nM. `COc1ccc(-c2nc(-c3ccc4c(c3)nnn4C(C)C)no2)cc1` [Compound 69, 3-(1-isopropyl-benzotriazol-5-yl)-5-(4-methoxyphenyl)-1,2,4-oxadiazole]: the EC50 was greater than 316 nM. With `CC(C)n1nnc2cc(-c3nnc(-c4ccccc4O)s3)ccc21` [Compound 70, 2-{5-[1-(propan-2-yl)-1H-1,2,3-benzotriazol-5-yl]-1,3,4-thiadiazol-2-yl}phenol], the EC50 was less than 316 nM. Turning to `CCC1(CC)CC(=O)c2cc(-c3nc(-c4cccc(OC)c4)no3)ccc2O1` [Compound 71, 2,2-diethyl-6-(3-(3-methoxyphenyl)-1,2,4-oxadiazol-5-yl)chroman-4-one], the EC50 is greater than 316 nM. The result for `CCC1(CC)CC(=O)c2cc(-c3nc(-c4ccc(O)cc4)no3)ccc2O1` [Compound 72, 2,2-diethyl-6-[3-(4-hydroxyphenyl)-1,2,4-oxadiazol-5-yl]chroman-4-one] reads less than 316 nM. Turning to `Cn1nnc2cc(-c3noc(-c4ccccc4Br)n3)ccc21` [Compound 73, 5-(2-bromophenyl)-3-(1-methyl-1H-benzo[d][1,2,3]triazol-5-yl)-1,2,4-oxadiazole], the EC50 is greater than 316 nM.

Take `Cc1ccsc1-c1noc(-c2ccc3c(c2)nnn3CC(C)C)n1` [Compound 75, 1-(2-methylpropyl)-5-[3-(3-methylthiophen-2-yl)-1,2,4-oxadiazol-5-yl]-1H-1,2,3-benzotriazole]: the EC50 is less than 316 nM. For `CCCn1nnc2cc(-c3nc(-c4cc(C)cc(C)c4)no3)ccc21` [Compound 76, 5-[3-(3,5-dimethyl-phenyl)-1,2,4-oxadiazol-5-yl]-1-propyl-1H-1,2,3-benzotriazole], the EC50 was greater than 316 nM.

As for `CC(C)n1nnc2cc(-c3noc(-c4cnccn4)n3)ccc21` [Compound 78, 3-(1-isopropyl-1H-benzo[d][1,2,3]triazol-5-yl)-5-(pyrazin-2-yl)-1,2,4-oxadiazole], the EC50 is greater than 316 nM. As to `CC(C)n1nnc2cc(-c3nc(-c4ccccc4)no3)ccc21` [Compound 79, 5-(3-phenyl-1,2,4-oxadiazol-5-yl)-1-(propan-2-yl)-1H-1,2,3-benzotriazole], the EC50 was less than 316 nM.

With `FC(F)Oc1ccc(-c2noc(-c3ccc4c(c3)nnn4C3CCCC3)n2)cc1` [Compound 80, 1-cyclopentyl-5-{3-[4-(difluoromethoxy)phenyl]-1,2,4-oxadiazol-5-yl}-1H-1,2,3-benzotriazole], the EC50 was less than 316 nM.

For the compound `Clc1ccc(-c2noc(-c3ccc4c(c3)nnn4C3CCOCC3)n2)s1` [Compound 82, 5-[3-(5-chlorothiophen-2-yl)-1,2,4-oxadiazol-5-yl]-1-(oxan-4-yl)-1H-1,2,3-benzotriazole], the EC50 is greater than 316 nM. Consider `Brc1ccccc1-c1noc(-c2ccc3c(c2)nnn3C2CC2)n1` [Compound 83, 5-[3-(2-bromophenyl)-1,2,4-oxadiazol-5-yl]-1-cyclopropyl-1H-1,2,3-benzotriazole], for which the EC50 is less than 316 nM. Under `FC(F)(F)Oc1ccccc1-c1nc(-c2ccc3c(c2)nnn3C2CCCC2)no1` [Compound 84, 3-(1-cyclopentyl-1H-benzo[d][1,2,3]triazol-5-yl)-5-(2-(trifluoro-methoxy)phenyl)-1,2,4-oxadiazole] stands greater than 316 nM; under `FC(F)(F)c1cc(-c2noc(-c3ccc4c(c3)nnn4C3CC3)n2)ccc1OCc1ccccc1` [Compound 85, 5-{3-[4-(benzyloxy)-3-(trifluoromethyl)phenyl]-1,2,4-oxadiazol-5-yl}-1-cyclopropyl-1H-1,2,3-benzotriazole], greater than 316 nM.

As to `Cc1cc(-c2nc(-c3ccc4c(c3)nnn4C(C)C)no2)ccn1` [Compound 86, 3-(1-isopropyl-1H-benzo[d][1,2,3]triazol-5-yl)-5-(2-methyl-pyridin-4-yl)-1,2,4-oxadiazole], the EC50 is greater than 316 nM. Turning to `Cc1ccc(-c2noc(-c3ccc4c(c3)nnn4C3CC3)n2)cn1` [Compound 87, 1-cyclopropyl-5-[3-(6-methylpyridin-3-yl)-1,2,4-oxadiazol-5-yl]-1H-1,2,3-benzotriazole], the EC50 was greater than 316 nM. With `CC(C)n1nnc2cc(-c3nc(Cc4ccccc4)no3)ccc21` [Compound 88, 5-(3-benzyl-1,2,4-oxadiazol-5-yl)-1-(propan-2-yl)-1H-1,2,3-benzotriazole], the EC50 is greater than 316 nM. Regarding `CC(C)n1nnc2cc(-c3noc(C4CCOCC4)n3)ccc21` [Compound 89, 5-[5-(oxan-4-yl)-1,2,4-oxadiazol-3-yl]-1-(propan-2-yl)-1H-1,2,3-benzotriazole], the EC50 is greater than 316 nM. Under `COc1ccc(-c2nc(-c3ccc4c(c3)nnn4C(C)C)no2)c(C)c1` [Compound 90, 3-(1-isopropyl-1H-benzo[d][1,2,3]triazol-5-yl)-5-(4-methoxy-2-methylphenyl)-1,2,4-oxadiazole] stands greater than 316 nM.
